Calls of active or inactive are those of the source.
How the values were obtained:
[1] = molecular target: FAD-linked sulfhydryl oxidase ALR (Homo sapiens, UniProt P55789); assay: ALR-catalysed DTT oxidation blockers – biochemical, H2O2 detection, luminescence, cherry-pick, dose response (AID 493248)
[2] = molecular target: T1, Polyadenylate-binding protein 1 (Homo sapiens, UniProt P11940); assay: MLLE binding blockers, Cy5 peptide tracer – biochemical, fluorescence polarization, Cy5-PAM2 peptide, secondary, miRNA deadenylation inhibitor project, dose response (AID 602260); format: functional; conditions: read-out: IC50_Mean
T1 sequence (P11940 whole entry, the tested form may be a part): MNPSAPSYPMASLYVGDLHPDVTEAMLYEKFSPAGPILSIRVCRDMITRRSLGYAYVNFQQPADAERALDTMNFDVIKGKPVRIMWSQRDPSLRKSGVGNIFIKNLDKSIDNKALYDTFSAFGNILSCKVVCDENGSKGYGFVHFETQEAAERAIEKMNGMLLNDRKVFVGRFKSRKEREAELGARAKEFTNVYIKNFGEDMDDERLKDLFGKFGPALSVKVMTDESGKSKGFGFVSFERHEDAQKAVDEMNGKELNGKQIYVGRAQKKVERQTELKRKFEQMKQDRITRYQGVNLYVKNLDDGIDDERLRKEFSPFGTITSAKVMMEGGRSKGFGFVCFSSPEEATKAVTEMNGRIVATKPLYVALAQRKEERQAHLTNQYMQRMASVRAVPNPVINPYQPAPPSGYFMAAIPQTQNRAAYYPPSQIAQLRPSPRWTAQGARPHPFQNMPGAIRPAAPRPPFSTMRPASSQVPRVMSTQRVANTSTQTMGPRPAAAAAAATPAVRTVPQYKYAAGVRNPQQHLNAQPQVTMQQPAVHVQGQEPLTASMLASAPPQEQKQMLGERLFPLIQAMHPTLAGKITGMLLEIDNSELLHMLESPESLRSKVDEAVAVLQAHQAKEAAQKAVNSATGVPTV

[3] = molecular target: T1, Polyadenylate-binding protein 1; assay: MLLE domain peptide-binding blockers, IC50 – biochemical, fluorescence polarization, FITC-PAM2 peptide, dose response (AID 602259); format: functional; conditions: read-out: IC50_Mean
[4] = molecular target: T2, Carboxy-terminal domain RNA polymerase II polypeptide A small phosphatase 1 (Homo sapiens, UniProt Q9GZU7); assay: CTDSP1 inhibitors, concentration-response, biochemical, absorbance readout, ultra-high-throughput screen actives (AID 540297); format: functional
T2 sequence (Q9GZU7 whole entry): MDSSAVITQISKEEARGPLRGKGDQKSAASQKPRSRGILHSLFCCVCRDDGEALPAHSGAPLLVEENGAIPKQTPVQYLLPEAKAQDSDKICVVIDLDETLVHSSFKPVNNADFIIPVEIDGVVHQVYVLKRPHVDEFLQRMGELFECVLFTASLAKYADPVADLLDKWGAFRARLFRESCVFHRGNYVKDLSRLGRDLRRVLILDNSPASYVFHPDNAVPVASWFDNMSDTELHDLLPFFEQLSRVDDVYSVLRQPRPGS

[5] = molecular target: Luciferin 4-monooxygenase (Photinus pyralis, UniProt P08659); assay: inhibition of purified Photinus pyralis luciferase – biochemical, luminescence, dose response (AID 1891)
Chain of Luciferin 4-monooxygenase (P08659 whole entry): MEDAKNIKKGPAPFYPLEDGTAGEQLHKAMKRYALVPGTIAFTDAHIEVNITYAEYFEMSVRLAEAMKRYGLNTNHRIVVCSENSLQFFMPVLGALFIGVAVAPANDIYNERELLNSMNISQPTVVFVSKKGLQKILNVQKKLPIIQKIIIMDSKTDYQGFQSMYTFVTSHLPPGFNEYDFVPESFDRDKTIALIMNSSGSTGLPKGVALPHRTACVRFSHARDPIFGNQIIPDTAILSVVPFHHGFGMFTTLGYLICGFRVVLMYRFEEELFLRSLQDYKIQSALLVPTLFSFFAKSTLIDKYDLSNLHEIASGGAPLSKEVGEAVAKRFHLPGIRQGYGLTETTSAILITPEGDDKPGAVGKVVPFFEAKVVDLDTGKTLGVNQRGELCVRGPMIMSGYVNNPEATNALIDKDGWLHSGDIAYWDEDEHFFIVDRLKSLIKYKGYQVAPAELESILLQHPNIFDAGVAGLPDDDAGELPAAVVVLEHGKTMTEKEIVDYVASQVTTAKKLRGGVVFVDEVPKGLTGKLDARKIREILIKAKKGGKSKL

[6] = Luminescence Cell-Based Dose Confirmation HTS to Identify Inhibitors of Platelet Dense Granule Release. [Related pubchem assays: 1663 (Primary HTS), 1678 (Summary of Project)]; format: functional
[7] = molecular target: T3, RNA-binding protein pos-1 (Caenorhabditis elegans, UniProt G5EF15); assay: disruptors of C. elegans POS-1 RNA interaction – biochemical, fluorescence polarization, dose response (AID 1964);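 further: purified POS-1 fused to maltose binding protein made in E. coli; potency of compounds blocking POS-1 binding to fluorescent RNA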
T3 sequence (G5EF15 whole entry): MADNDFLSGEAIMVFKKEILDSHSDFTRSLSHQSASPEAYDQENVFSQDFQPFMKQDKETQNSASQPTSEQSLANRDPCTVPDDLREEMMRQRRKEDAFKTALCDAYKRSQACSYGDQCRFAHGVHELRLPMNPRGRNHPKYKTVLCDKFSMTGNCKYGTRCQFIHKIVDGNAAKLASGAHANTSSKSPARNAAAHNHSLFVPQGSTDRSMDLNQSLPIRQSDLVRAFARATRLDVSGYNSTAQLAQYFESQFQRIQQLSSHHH

[8] = molecular target: T4, Zinc finger protein mex-5 (Caenorhabditis elegans, UniProt Q9XUB2); assay: potency of MEX-5 RNA-binding blockers – biochemical, C. elegans, fluorescence polarization, dose response (AID 1960)
T4 sequence (Q9XUB2 whole entry): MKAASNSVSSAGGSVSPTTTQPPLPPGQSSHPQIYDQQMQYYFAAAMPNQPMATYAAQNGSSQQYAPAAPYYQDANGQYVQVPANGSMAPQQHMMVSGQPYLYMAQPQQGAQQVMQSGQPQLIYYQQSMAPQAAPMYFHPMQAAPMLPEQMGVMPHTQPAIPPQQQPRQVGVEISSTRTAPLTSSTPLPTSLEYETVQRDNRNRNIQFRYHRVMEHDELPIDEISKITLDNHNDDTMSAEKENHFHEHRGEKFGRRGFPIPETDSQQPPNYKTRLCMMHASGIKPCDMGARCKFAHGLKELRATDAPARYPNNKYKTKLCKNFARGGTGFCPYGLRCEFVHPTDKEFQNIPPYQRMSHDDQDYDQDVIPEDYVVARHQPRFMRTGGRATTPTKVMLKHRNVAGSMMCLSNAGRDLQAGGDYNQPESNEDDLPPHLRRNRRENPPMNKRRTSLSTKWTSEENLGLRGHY

[9] = molecular target: Nonstructural protein 1 (Influenza A virus, UniProt Q194T2); format: functional, Influenza A virus (A/California/07/2009(H1N1))
Chain of Nonstructural protein 1 (Q194T2 whole entry): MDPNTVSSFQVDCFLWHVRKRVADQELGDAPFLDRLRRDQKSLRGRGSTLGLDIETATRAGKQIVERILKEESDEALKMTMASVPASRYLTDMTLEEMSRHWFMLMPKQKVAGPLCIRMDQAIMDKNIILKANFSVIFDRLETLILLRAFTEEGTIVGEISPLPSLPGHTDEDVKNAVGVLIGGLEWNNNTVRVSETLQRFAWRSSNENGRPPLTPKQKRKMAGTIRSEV

[10] = luciferase reporter signal suppression in cells – H4 neuroglioma cells, luminescence, dose response (AID 1990); format: functional, cell-based
[11] = Luminescence Cell-Based Dose Response HTS to Identify Inhibitors of 5'UTR Stem-Loop Driven Prion Protein mRNA Translation in H4 Neuroglioblastoma Cells. [Related pubchem assays: 1827 (Project Summary), 1813 (Primary HTS)]; format: functional
[12] = alpha-synuclein stem-loop luciferase translation blockers – H4 neuroglioma cells, luminescence, confirmation (AID 1988); format: functional, cell-based
[13] = test system: INS1; assay: INS-1E survival protection against cytokine death – cell-based, luminescence, retest, dose response (AID 449756); format: functional; conditions: Rattus norvegicus;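 further: cell death triggered by IL-1 beta plus TNF-alpha plus IFN-gamma mixture; protective hits raise ATP signal compared with cytokine alone wells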
[14] = molecular target: Cytochrome P450 2D6 (Homo sapiens, UniProt P10635);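 further: CYP2D6 member of a cytochrome P450 panel assay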
Chain of Cytochrome P450 2D6 (P10635 whole entry): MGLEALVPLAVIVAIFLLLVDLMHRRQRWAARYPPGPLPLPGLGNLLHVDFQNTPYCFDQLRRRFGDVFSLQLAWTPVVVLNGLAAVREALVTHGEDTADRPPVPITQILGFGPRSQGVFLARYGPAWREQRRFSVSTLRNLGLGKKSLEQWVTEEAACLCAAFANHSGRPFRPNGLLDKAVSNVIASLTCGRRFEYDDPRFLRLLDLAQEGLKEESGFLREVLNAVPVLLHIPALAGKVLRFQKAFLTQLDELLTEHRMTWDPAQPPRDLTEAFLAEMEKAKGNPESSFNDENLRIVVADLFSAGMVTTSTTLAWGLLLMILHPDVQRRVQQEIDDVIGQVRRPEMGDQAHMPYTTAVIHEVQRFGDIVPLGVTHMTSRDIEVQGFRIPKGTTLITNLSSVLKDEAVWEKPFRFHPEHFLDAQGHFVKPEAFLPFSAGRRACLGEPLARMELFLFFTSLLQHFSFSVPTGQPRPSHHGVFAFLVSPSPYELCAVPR

[15] = cells; format: functional

Chain of FAD-linked sulfhydryl oxidase ALR (P55789 whole entry): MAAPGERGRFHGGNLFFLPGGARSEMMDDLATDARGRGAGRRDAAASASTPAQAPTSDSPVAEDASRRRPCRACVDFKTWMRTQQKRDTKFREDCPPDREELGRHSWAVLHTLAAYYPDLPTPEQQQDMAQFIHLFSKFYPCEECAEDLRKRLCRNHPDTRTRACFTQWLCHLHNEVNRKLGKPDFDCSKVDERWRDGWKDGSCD

## NNc1nc2ccc(F)cc2s1
[1]
  AC50: 4.94 µM (active)

## COC(=O)c1c(NC(=O)C2C3CCC(C3)C2C(=O)O)sc2c1CCCCC2 (stereo not given)
[2]
  IC50: > 66 µM (inactive)
[3]
  IC50: > 66 µM (inactive)

## COc1ccc(N2CCN(C(=O)CCNS(=O)(=O)c3ccccc3)CC2)cc1
[1]
  AC50: 8.08 µM (active)

## O=C(CSc1nnc(CNC(=O)c2c(F)cccc2F)o1)NCc1ccco1
[4]
  IC50: 14 µM (active)

## COc1ccc(NC(=O)c2cc(S(=O)(=O)N3CCc4ccccc43)cn2C)cc1
[5]
  EC50: > 112 µM (not active)
[6]
  EC50: > 112 µM (not active)

## CCCCC1=CC2=CC(=O)C(C)(OC(=O)c3ccc(Cl)nc3)C(=O)C2=CO1 (stereo not given)
[7]
  EC50: 21.7 µM (active)
[8]
  EC50: 21.6 µM (active)

## CN(CC(=O)Nc1cccc2ccccc12)C(=O)c1ccc(NC(=O)CC#N)cc1
[1]
  AC50: 6.29 µM (active)

## CC(C)c1nnc(NC(=O)CS(=O)(=O)Cc2ccccc2)s1
[2]
  IC50: > 66 µM (inactive)
[3]
  IC50: > 66 µM (inactive)

## CCCCN(C(=O)C1CC(=O)N(c2ccc(OC)cc2OC)C1)c1c(N)n(CC(C)C)c(=O)[nH]c1=O (stereo not given)
[5]
  EC50: > 112 µM (not active)
[6]
  EC50: 17.5 µM (active)

## O=C(CN1CCN(c2ccc(Cl)cc2)CC1)N1CCCC1
[1]
  AC50: 0.657 µM (active)

## CSCCC1NC(=O)N(CC(=O)Nc2ccc(Br)cc2Br)C1=O (stereo not given)
[5]
  EC50: > 112 µM (not active)
[6]
  EC50: > 112 µM (not active)

## Nc1nn(-c2ccccc2)c(N)c1N=Nc1ccccc1F
[9]
  IC50: > 100 µM (active)

## O=c1c2ccccc2nc(/C=C/c2ccc(F)cc2)n1-c1ccccn1
[5]
  EC50: > 112 µM (not active)
[6]
  EC50: > 112 µM (not active)

## COc1ccc(OC)c(C(=O)c2coc3ccc(O)c(CN4CCOCC4)c23)c1
[7]
  EC50: > 300 µM (not active)
[8]
  EC50: > 300 µM (not active)

## Cc1nc(C(F)(F)F)c(C(=O)NN=C(N)c2ccccn2)s1
[10]
  EC50: 11.5 µM (active)
[11]
  EC50: > 120 µM (not active)
[12]
  EC50: > 120 µM (not active)
[9]
  IC50: 8.03 µM (active)
[13]
  AC50: 5.45 µM (active)

## CCOC(=O)c1nc(Nc2ccc(N3CCC(C)CC3)cc2)c2ccccc2n1
[9]
  IC50: 26.9 µM (active)

## Cc1onc(-c2c(Cl)cccc2Cl)c1C(=O)N1CCc2ccccc2C1
[5]
  EC50: > 112 µM (not active)
[6]
  EC50: > 112 µM (not active)
[14]
  AC50: 22.4 µM (inconclusive)

## Cn1c(=O)c(-c2cc(O)[nH]n2)c(O)c2ccccc21
[7]
  EC50: > 300 µM (not active)
[8]
  EC50: 23.3 µM (active)

## O=C(COc1ccc(-n2cnnn2)cc1)Nc1ccccc1Cl
[4]
  IC50: 11.4 µM (active)

## Cc1ccc2[nH]c(C(=O)O)c(-c3ccccc3)c2c1
[1]
  AC50: 4.49 µM (active)

## CC1CCN(C(=O)COC(=O)CCc2c[nH]c3ccccc23)CC1
[15]
  IC50: 2.53 µM (active)

## Cc1cc(NC(=O)CSC2=NCCS2)no1
[2]
  IC50: > 66 µM (inactive)
[3]
  IC50: > 66 µM (inactive)

## CN1C(=O)C(=Cc2ccc(Sc3ccccc3)o2)C(=O)N(C)C1=S
[7]
  EC50: > 300 µM (not active)
[8]
  EC50: > 300 µM (not active)

Reference: ChEMBL document CHEMBL1201862, “PubChem BioAssay data set” (2004)
